Measured values from patent US20240317746A1, “CRYSTALLINE FORMS OF AN AZETIDINE PARP1 INHIBITOR” (XinThera, Inc., priority 2023, published 2024).
Values joined by “and” are separate entries in the source; they are usually repeats but may differ in a detail not shown here. Equal entries are not always repeated. “Also recorded” adds a separate entry of the source. Structures can show the parent of a compound that is named as a salt. Values belong to the molecule of their own block, whether it stands above or below them.

Legend:
Assay type in all cases: physicochemical
[1] = DVS test (dynamic vapor sorption, hygroscopicity); conditions: for hygroscopicity (in words): DVS
Procedure: All the three target forms remained no change after DVS test.
Dynamic Vapor Sorption (DVS) was used to study hygroscopicity on Model Q5000 SA (TA Instruments, New Castle, DE). A sample (1-10 mg) was placed in an aluminum pan and loaded on the sample side of the twin pan balance. The water sorption and desorption were studied as a function of relative humidity (RH) at 25° C. in 10% RH increments from 0% RH to 90% RH and then back to 0%. […] Data analysis was performed using Universal Analysis 2000 Version 4.7A (TA Instruments, New Castle, DE).

[2] = Solubility in bio-relevant media (SGF, FaSSIF, FeSSIF) and water; conditions: for XRPD 0.5 h / XRPD 2 h / XRPD 24 h: filter cake; for solubility compared to Freebase Form I (in words): water, FaSSIF and FeSSIF, 37° C.
Procedure: At 0.5, 2 and 24 hours, about 0.6 mL of each suspension was filtered, the filtrate was analyzed by HPLC and pH meter, and the filter cake was analyzed by XRPD. The samples were prepared in duplicate (n=2) per condition. Average value (n=2) was presented.
HPLC analysis was performed with an Agilent HPLC 1260 series instrument.

[3] = Solid-state stability at 60° C. (capped) and 40° C./75% RH (open); conditions: for XRPD - 7 d / physical and chemical stability: 7 days; for physical and chemical stability: 60° C. (capped) and 40° C./75% RH (open); for Initial Purity: before storage, HPLC
Procedure: (capped) and 40° C./75% RH (open) for 7 days. Duplicate samples were prepared at each condition. The stability sample was dissolved in diluent to prepare solution at ˜1 mg/mL for HPLC purity analysis. Solid samples were analyzed by XRPD to check the crystal form. […] (capped) and 40° C./75% RH (open) for at least 7 days.

[4] = FaSSIF, initial pH 6.45, 37° C., average n=2
[5] = FaSSIF, initial pH 6.45, filtrate
[6] = FeSSIF, initial pH 4.99, 37° C., average n=2
[7] = FeSSIF, initial pH 4.99, filtrate
[8] = Water, initial pH 5.41, 37° C., average n=2
[9] = Water, initial pH 5.41, filtrate
[10] = in FaSSIF and FeSSIF, XRPD of filter cake

- hygroscopicity (in words) [1]: hygroscopic
- water uptake ([1]; from 0 to 90% RH at 25° C.): about 3.6%
SMILES: C[C@@H]1[C@@H](Oc2ccc(C(=O)NC3CC3)nc2)CN1Cc1cnc2cc(Cl)c(=O)[nH]c2c1 [Hemiedisylate Salt Form II, 5-(((2R,3S)-1-((7-chloro-6-oxo-5,6-dihydro-1,5-naphthyridin-3-yl)methyl)-2-methylazetidin-3-yl)oxy)-N-cyclopropylpicolinamide]

- hygroscopicity (in words) [1]: hygroscopic
- water uptake ([1]; from 0 to 90% RH at 25° C.): about 4.6%
SMILES: C[C@@H]1[C@@H](Oc2ccc(C(=O)NC3CC3)nc2)CN1Cc1cnc2cc(Cl)c(=O)[nH]c2c1 [L-Malate Salt Form II, 5-(((2R,3S)-1-((7-chloro-6-oxo-5,6-dihydro-1,5-naphthyridin-3-yl)methyl)-2-methylazetidin-3-yl)oxy)-N-cyclopropylpicolinamide]

- hygroscopicity (in words) [1]: hygroscopic
- water uptake ([1]; from 0 to 90% RH at 25° C.): about 10.2%
SMILES: C[C@@H]1[C@@H](Oc2ccc(C(=O)NC3CC3)nc2)CN1Cc1cnc2cc(Cl)c(=O)[nH]c2c1 [L-Tartrate Salt Form II, 5-(((2R,3S)-1-((7-chloro-6-oxo-5,6-dihydro-1,5-naphthyridin-3-yl)methyl)-2-methylazetidin-3-yl)oxy)-N-cyclopropylpicolinamide]

- hygroscopicity (in words) [1]: slightly hygroscopic
- water uptake ([1]; at 80% RH): < 1% and 0.6%
- water uptake ([1]; at 90% RH): 0.9%
- XRPD 0.5 h ([2]; FaSSIF): FB Form I
- XRPD 2 h ([2]; FaSSIF): FB Form I
- XRPD 24 h ([2]; FaSSIF): FB Form I
- Solubility 0.5 h [2, 4]: 397 µg/mL
- Solubility 2 h [2, 4]: 410 µg/mL
- Solubility 24 h [2, 4]: 373 µg/mL
- pH 0.5 h [2, 5]: 4.58
- pH 2 h [2, 5]: 4.46
- pH 24 h [2, 5]: 4.43
- solubility at 24 h ([2]; FeSSIF, 37 °C, pH 4.99, fessif, thermodynamic from solid, initial pH 4.99, 37° C., average n=2): 131 µg/mL
- XRPD 0.5 h ([2]; FeSSIF): FB Form I
- XRPD 2 h ([2]; FeSSIF): FB Form I
- XRPD 24 h ([2]; FeSSIF): FB Form I
- Solubility 0.5 h [2, 6]: 369 µg/mL
- Solubility 2 h [2, 6]: 159 µg/mL
- pH 0.5 h [2, 7]: 4.82
- pH 2 h [2, 7]: 4.82
- pH 24 h [2, 7]: 4.79
- XRPD 0.5 h, 2 h, 24 h ([2]; SGF): Clear
- solubility ([2]; SGF, 37 °C, pH 1.23, simulated gastric fluid, thermodynamic from solid, SGF, initial pH 1.23, 37° C., read-out: Solubility 0.5 h, 2 h, 24 h): > 5000 µg/mL
- pH 0.5 h ([2]; SGF, initial pH 1.23, filtrate): 1.33
- pH 2 h ([2]; SGF, initial pH 1.23, filtrate): 1.17
- pH 24 h ([2]; SGF, initial pH 1.23, filtrate): 1.22
- XRPD 0.5 h, 2 h, 24 h ([2]; Water): Little solid
- Solubility 0.5 h [2, 8]: 4527 µg/mL
- Solubility 2 h [2, 8]: 4494 µg/mL
- Solubility 24 h [2, 8]: 3797 µg/mL
- pH 0.5 h [2, 9]: 3.81
- pH 2 h [2, 9]: 3.75
- pH 24 h [2, 9]: 3.90
- form change of the solid [2, 10]: dissociated into Freebase Form I
- solubility compared to Freebase Form I (in words) [2]: improved solubility
- XRPD - 7 d ([3]; 40° C./75% RH (open)): Unchanged
- physical and chemical stability [3]: physically and chemically stable
- XRPD - 7 d ([3]; 60° C. (capped)): Unchanged
- Initial Purity [3]: 99.72 area %
SMILES: C[C@@H]1[C@@H](Oc2ccc(C(=O)NC3CC3)nc2)CN1Cc1cnc2cc(Cl)c(=O)[nH]c2c1 [Maleate Form IV, 5-(((2R,3S)-1-((7-chloro-6-oxo-5,6-dihydro-1,5-naphthyridin-3-yl)methyl)-2-methylazetidin-3-yl)oxy)-N-cyclopropylpicolinamide]

- hygroscopicity (in words) [1]: hygroscopic
- water uptake ([1]; from 0 to 90% RH at 25° C.): about 6%
SMILES: C[C@@H]1[C@@H](Oc2ccc(C(=O)NC3CC3)nc2)CN1Cc1cnc2cc(Cl)c(=O)[nH]c2c1 [Sulfate Salt Form III, 5-(((2R,3S)-1-((7-chloro-6-oxo-5,6-dihydro-1,5-naphthyridin-3-yl)methyl)-2-methylazetidin-3-yl)oxy)-N-cyclopropylpicolinamide]

- hygroscopicity (in words) [1]: slightly hygroscopic
- hygroscopicity (in words) ([1]; listed as Tartrate Salt Form I): slightly hygroscopic
- water uptake ([1]; at 80% RH): < 1% and 0.8%
- water uptake ([1]; at 90% RH): 1.4%
- water uptake ([1]; from 0 to 90% RH at 25° C., listed as Tartrate Salt Form I): about 1.1%
- XRPD 0.5 h ([2]; FaSSIF): Amorphous
- XRPD 2 h ([2]; FaSSIF): FB Form I
- XRPD 24 h ([2]; FaSSIF): FB Form I
- Solubility 0.5 h [2, 4]: 2088 µg/mL
- Solubility 2 h [2, 4]: 1320 µg/mL
- Solubility 24 h [2, 4]: 980 µg/mL
- pH 0.5 h [2, 5]: 3.98
- pH 2 h [2, 5]: 3.81
- pH 24 h [2, 5]: 3.69
- XRPD 0.5 h ([2]; FeSSIF): Amorphous
- XRPD 2 h ([2]; FeSSIF): FB Form I
- XRPD 24 h ([2]; FeSSIF): FB Form I
- Solubility 0.5 h [2, 6]: 496 µg/mL
- Solubility 2 h [2, 6]: 207 µg/mL
- Solubility 24 h [2, 6]: 144 µg/mL
- pH 0.5 h [2, 7]: 4.71
- pH 2 h [2, 7]: 4.71
- pH 24 h [2, 7]: 4.70
- XRPD 0.5 h, 2 h, 24 h ([2]; SGF): Clear
- Solubility 0.5 h, 2 h, 24 h ([2]; SGF, initial pH 1.23, 37° C.): >5000 µg/mL
- pH 0.5 h ([2]; SGF, initial pH 1.23, filtrate): 1.32
- pH 2 h ([2]; SGF, initial pH 1.23, filtrate): 1.17
- pH 24 h ([2]; SGF, initial pH 1.23, filtrate): 1.25
- XRPD 0.5 h ([2]; Water): Unchanged
- XRPD 2 h ([2]; Water): Unchanged
- Solubility 0.5 h [2, 8]: 4288 µg/mL
- Solubility 2 h [2, 8]: 4422 µg/mL
- Solubility 24 h [2, 8]: 293 µg/mL
- pH 0.5 h [2, 9]: 3.63
- pH 2 h [2, 9]: 3.58
- pH 24 h [2, 9]: 3.73
- form change of the solid [2, 10]: dissociated into Freebase Form I
- form change of the solid ([2]; in water at 24 h): converted into a new pattern
- solubility compared to Freebase Form I (in words) [2]: improved solubility
- XRPD - 7 d ([3]; 40° C./75% RH (open)): Unchanged
- physical and chemical stability [3]: physically and chemically stable
- XRPD - 7 d ([3]; 60° C. (capped)): Unchanged
- Initial Purity [3]: 99.64 area %
SMILES: C[C@@H]1[C@@H](Oc2ccc(C(=O)NC3CC3)nc2)CN1Cc1cnc2cc(Cl)c(=O)[nH]c2c1 [Tartrate Form I, 5-(((2R,3S)-1-((7-chloro-6-oxo-5,6-dihydro-1,5-naphthyridin-3-yl)methyl)-2-methylazetidin-3-yl)oxy)-N-cyclopropylpicolinamide]
- conversion rate to the freebase (in words) ([2]; in FaSSIF and FeSSIF, compared with Maleate Form IV): slower conversion rate; also recorded: slower form conversion
